Publication PMC3989207, “Subchronic Toxicological Study of Two Artemisinin Derivatives in Dogs” (PLoS ONE, 2014)
Like-named read-outs stand apart in the source and are kept apart here.

Key:
beagle dogs [1] = test: Hematology in the 13-week repeated-dose dog study; assay type: in vivo
Protocol: (§1) The first day of treatment was regarded as day one in the study. […] Oral administration was performed about 2 h after feeding. ARM was administered by a bolus intramuscular infusion through a 25-gauge needle at a constant volume of 2 ml kg^−1 once a day into the gluteal and infraspinous muscles. Two dogs of each sex from each group were allowed to recover without further treatment for an additional 4 weeks.
Blood samples were collected from the femoral vein of each dog prior to treatment and every 2 weeks after the first day of treatment. Hematology parameters were measured using an automated hematology analyzer (Sysmex, XT-2000iv, Toa Medical Electronics Co. Ltd., Kobe, Japan) using standard methods. Test parameters included hemoglobin (Hb) levels, the hematocrit (Hct) fraction, erythrocyte (RBC) count, leukocyte (WBC) count, neutrophilic granulocyte fraction (NE%), monocyte fraction (MO%), lymphocyte levels (LY%), platelet count (PLT), reticulocyte count (RET%) and RBC morphology. The following clinical chemistry parameters were measured using a Hitachi-7180 Chemistry Analyzer (High-Technologies Corporation, Tokyo, Japan) and standard methods: glucose, blood urea nitrogen, inorganic phosphorus, creatinine, total protein, albumin, calcium, aspartate aminotransferase (AST), alanine aminotransferase, alkaline phosphatase, total bilirubin, creatine kinase (CK), sodium, potassium and chloride.
The differential granulocytic and erythrocytic series (erythroid, myeloid blast cell count and the red ratio) were determined manually from blood smears.

[2] = Toxicokinetic analysis of plasma drug levels (HPLC); assay type: in vivo, dog; conditions: for AUC: 6 mg kg^−1 daily, ART p.o.; for maximum plasma concentration after dosing: daily i.m. 6 mg kg^−1
Protocol: as §1
For toxicokinetic analysis, blood samples were collected on weeks 1, 2, 4, 8 and 13 at 0 (before dosing), 0.5, 1, 2, 4, 8, 12 and 24 h after dosing. Approximately 1 ml blood was drawn from the antebrachial, cephalic or jugular vein of three animals of each sex per time point and deposited into heparinized tubes for immediate centrifugation at 3000 rpm at 4°C for 10 min. The plasma was then immediately transferred to 2 ml polypropylene tubes and stored on dry ice. Samples were stored at −80°C until HPLC analysis.

beagle dogs [3] = test: Severity grading of muscle tissue injury at the intramuscular injection site; assay type: in vivo, dog; conditions: for Severity of muscle tissue injury at the injection site: n=4
Protocol: as §1
Termination of treatment was scheduled to occur on weeks 4, 8 (two interim necropsies) and 13, followed by a 4-week recovery period. For pathological examinations, the animals were euthanized within 24 h of the final drug administration with sodium pentobarbital, followed by exsanguination via the femoral artery. A gross necropsy was performed, including a thorough visual examination of all the internal organs. Weights were obtained for the brain, heart, liver, spleen, lung, kidneys, adrenals, thyroid/parathyroids, thymus, pancreas and ovaries/testes/prostate, and organ-to-body weight ratios were calculated. For each animal, representative samples from approximately 48 organs and tissues were taken and fixed in neutral buffered 10% formalin, except for the sternum, which was retained in Helly’s fixative (1000 ml distilled water, 25 g potassium dichromate, 10 g sodium sulfate, 50 g mercuric chloride, 50 ml 40% formaldehyde). Histopathological sections of all samples were prepared by embedding in paraffin wax, multiple-sectioning and staining with hematoxylin and eosin (HE). Samples of the left ventricular myocardium, right lateral hepatic lobe and right kidney from two animals of each sex from each group were fixed immediately after exsanguination in 2.5% glutaraldehyde, post-fixed in 1.0% osmium tetroxide, and embedded in plastic. Ultrathin liver, kidney and heart sections were examined with a Hitachi H-600 transmission electron microscope (TEM). All other tissues were examined by light microscopy.
Gross findings in the ART and ARM treatment groups were limited to the injection sites.

beagle dogs [4] = test: Ultra-structural examination of liver, kidney and heart by transmission electron microscopy; assay type: in vivo, dog; conditions: weeks 4, 8 and 13; TEM
Protocol: as §1
Termination of treatment was scheduled to occur on weeks 4, 8 (two interim necropsies) and 13, followed by a 4-week recovery period. For pathological examinations, the animals were euthanized within 24 h of the final drug administration with sodium pentobarbital, followed by exsanguination via the femoral artery. A gross necropsy was performed, including a thorough visual examination of all the internal organs. Weights were obtained for the brain, heart, liver, spleen, lung, kidneys, adrenals, thyroid/parathyroids, thymus, pancreas and ovaries/testes/prostate, and organ-to-body weight ratios were calculated. For each animal, representative samples from approximately 48 organs and tissues were taken and fixed in neutral buffered 10% formalin, except for the sternum, which was retained in Helly’s fixative (1000 ml distilled water, 25 g potassium dichromate, 10 g sodium sulfate, 50 g mercuric chloride, 50 ml 40% formaldehyde). […]

Dogs = test system: Dogs; design: method as in Classen et al., 1999 [30]; conditions: 20 mg kg^−1 per day, i.m. for 30 days, ref Classen et al., 1999 [30]; cited from earlier work
Rats = test system: Rats; design: method as in Akinlolu and Shokunbi, 2008 [41]; conditions: 25 mg kg^−1 per day, i.m. for 7 days, ref Akinlolu and Shokunbi, 2008 [41]; cited from earlier work
[5] = design: method as in Li et al. (2006); conditions: applied to ARM plasma levels; ref Li et al. (2006); cited from earlier work
[6] = design: method as in PMID 11060779; conditions: cited from earlier work
[7] = week 2 until week 10 post-treatment, vs control groups (p<0.05)

For `CO[C@H]1O[C@@H]2O[C@@]3(C)CC[C@H]4[C@H](C)CC[C@@H]([C@H]1C)[C@@]24OO3` [ARM, artemether], which “Hematology (overall)” value (beagle dogs [1]; Week 13, 6 mg kg^-1 per day) is on record?
Its value is “- (“-” = No effect)”.

And the MO% (beagle dogs [1]; females, after weeks 6, 8 and 10 (p<0.05))?
The MO% was “significant increases”.

What about the Hb levels (beagle dogs [1]; week 2) of the same compound?
The Hb levels was “corresponding decrease”.

And the RBC counts (beagle dogs [1]; week 2)?
Its RBC counts is “decrease”.

And the LY% (beagle dogs [1]; [7])?
Its LY% is “decreased”.

What about the NE% (beagle dogs [1]; [7]) of the same compound?
The NE% was “significantly increased”.

What about the WBC count (beagle dogs [1]; [7]) of the same compound?
Its WBC count is “significantly increased”.

What about the RET% (beagle dogs [1]; week 10, males and females, vs peanut oil control group (p<0.05)) of the same compound?
Its RET% is “significant increase”.

And the AUC ([2]; both sexes, beagle, dog, plasma, other: ART p.o., ARM i.m., 6 mg/kg, week 8, ARM i.m., dog plasma, read-out: AUC8w)?
The AUC was 10.9 ± 11.6 ng·h/mL.

And the AUC ([2]; both sexes, beagle, dog, plasma, other: ART p.o., ARM i.m., 6 mg/kg, week four, ARM i.m., dog plasma, read-out: AUC4w)?
The AUC was 739 ± 209 ng·h/mL.

And the AUC(0-t) ([2]; both sexes, beagle, dog, plasma, other: ART p.o., ARM i.m., 6 mg/kg, read-out: AUC93D)?
The AUC(0-t) was 71.3 ± 56.6 ng·h/mL.

What about the Cmax ([2]; both sexes, beagle, im, week four, 6 mg kg^−1 daily i.m., dog plasma, read-out: C max, w4) of the same compound?
Its Cmax is 219 ± 41.3 ng/mL.

What about the half-life ([2]; both sexes, beagle, im, week four, 6 mg kg^−1 daily i.m., dog plasma, read-out: T 1/2, w4 (biological half-life) (converted)) of the same compound?
The half-life was 3 ± 1.16 h.

What about the Tmax ([2]; both sexes, beagle, im, week four, 6 mg kg^−1 daily i.m., dog plasma, read-out: T max, w4) of the same compound?
The Tmax was 0.5 ± 0.03 h.

And the “maximum plasma concentration after dosing” value (“maximum plasma concentration” for short) ([2]; day 1)?
Its value is 90.63 ± 24.99 µg/L.

What about the “maximum plasma concentration” value ([2]; week 4) of the same compound?
Its value is 219.10 ± 41.30 µg/L.

And the “maximum plasma concentration” value ([2]; week 8)?
Its value is 46.20 ± 13.15 µg/L.

And the “maximum plasma concentration” value ([2]; week 13)?
Its value is 43.85 ± 10.79 µg/L.

And the “Severity of muscle tissue injury at the injection site” value (“Severity of muscle tissue injury” for short) (beagle dogs [3]; W4, 6 mg kg^−1 i.m., grades 0 (no significant lesions) to 5 (severe))?
Its value is 2.25±0.87.

And the “Severity of muscle tissue injury” value (beagle dogs [3]; W8, 6 mg kg^−1 i.m., grades 0 to 5)?
The value was 2.67±0.78.

And the “Severity of muscle tissue injury” value (beagle dogs [3]; W13, 6 mg kg^−1 i.m., grades 0 to 5)?
Its value is 3.92±1.08.

What about the “Severity of muscle tissue injury” value (beagle dogs [3]; W17 (after 4-week recovery), grades 0 to 5) of the same compound?
The value was 3.84±0.72.

And the “inflammation of muscle tissue at the injection site” value (beagle dogs [3]; i.m. injection, vs vehicle control group)?
The value was “more severely inflamed than that in the vehicle control group”.

What about the “ultra-structural findings in hepatocytes, myocardial cells and proximal tubules in the kidney” value (beagle dogs [4]) of the same compound?
The value was “Mitochondrial bending and distortion and swollen vacuoles”.

What about the “Effect (toxicology)” value (Dogs) of the same compound?
The value was “Axonal damage in the cerebellar roof, pontine and vestibular nuclei, and in the raphe/ paralemniscal region; hypochromic, microcytic anemia”.

And the “Effect (toxicology)” value (Rats)?
Its value is “Damage of trapezoid nuclei, abnormalities in balance and coordination”.

What about the “lowest observed neurotoxic effect level (plasma concentration)” value [5] of the same compound?
Its value is 40.92 ng/mL.

And the solubility character [6]?
Its solubility character is “fat soluble”.
